Measured values from patent publication US5510356A, “Bisquinolines and processes for their production and use to treat malaria” (priority 1991, dated 1996).
“Also recorded” adds a separate entry of the source.

Key:
[1] = system: P. berghei (strain KBG 173); assay: In vivo activity against P. berghei in mice, single subcutaneous dose 3 days after infection; set-up: species or system Plasmodium berghei; mice
Description: In vivo activity against P. berghei was obtained against a drug-sensitive strain of P. berghei (strain KBG 173) (Osdene et al., 1967). Each test compound is administered subcutaneous to five male mice per dilution in a single subcutaneous dose 3 days after infection. Results are expressed in T-C values which indicate the mean survival time of the treated mice beyond that of the control animals; untreated mice survive on average 6.2 days. Compounds are classified as active (A) when the mean survival time of the treated mice is twice that of the controls (>6.2 days), and curative (C) when one or more test animals live 60 days post-infection. Deaths from 0-2 days post-treatment are attributed to toxicity (T).

P. falciparum = assay: In vitro activity against P. falciparum (both clones, D-6 and W-2); format: cell-based, Plasmodium falciparum; conditions: for Resistance Index: IC50 (W2)/IC50 (D6) ratio; for IC50: Plasmodium falciparum, clone not specified; for antimalarial activity (in words): general statement, refers to Table I
Description: (§1) In vitro activity against P. falciparum was determined using a modification of the semiautomated microdilution technique of Desjardins et al. (1979) and Milhous et al. (1985). Two P. falciparum malaria parasite clones, designated as Sierra Leone (D-6) and Indochina (W-2), are used in susceptibility testing. The former is resistant to mefloquine, and the latter to CQ, pyrimethamine, sulfadoxine, and quinine. Test compounds are dissolved in dimethylsulfoxide, and solutions serially diluted with culture media. Erythrocytes with 0.25 to 0.5% parasitemia are added to each well of a 96-well microdilution plate to give a final hematocrit of 1.5%. […] Results are reported as […] (ng/mL) values. For a complete description of this assay, see Milhous et al. (1985) and Lin et al. (1987).

[2] = system: P. falciparum clone W-2 (Indochina); format: cell-based, Plasmodium falciparum
Description: as §1

[3] = system: P. falciparum clone D-6 (Sierra Leone); format: cell-based, Plasmodium falciparum; conditions: D-6 clone (resistant to mefloquine)
Description: as §1

CQ-resistant malaria = conditions: cited from earlier work; for activity against malaria / CQ-resistant malaria (in words): literature
[4] = 40 mg/kg s.c., single dose 3 days post infection, n = 5
[5] = 160 mg/kg s.c., single dose 3 days post infection, n = 5
[6] = compared to CQ, Li et al., 1981a, Lin et al., 1982
[7] = 640 mg/kg s.c., single dose 3 days post infection, n = 5

Clc1ccc2c(NCCCCCNc3ccnc4cc(Cl)ccc34)ccnc2c1 [Compound 6, N^1, N^5 -Bis(7-chloroquinolin-4-yl)pentane-1,5-diamine]
in vivo activity against P. berghei (in words) [1]: either active or curative | P. berghei T-C [1, 4]: 1.0 days | P. berghei T-C [1, 5]: 5.1 days | Resistance Index (P. falciparum): 1.5 | IC50 (P. falciparum): < 6 nM | P. falciparum IC50 (nM) W-2 [2]: 3.8 nM | P. falciparum IC50 (nM) D-6 [3]: 2.5 nM

Clc1ccc2c(N[C@@H]3CCCC[C@H]3Nc3ccnc4cc(Cl)ccc34)ccnc2c1 (relative stereo) [Compound 3, ±-trans-N^1,N^2 -Bis (7-chloroquinolin-4-Yl) cyclohexane-1,2-diamine]
in vivo activity against P. berghei (in words) [1]: either active or curative | P. berghei T-C [1, 4]: 8.5 days | mice cured ([1]; 160 mg/kg): 4/5 | mice cured ([1]; 320 mg/kg): 5/5 | in vitro activity against P. falciparum (in words) (P. falciparum): most potent bisquinoline in vitro | Resistance Index (P. falciparum): 1.4 | IC50 (P. falciparum): < 6 nM | antimalarial activity (in words) (P. falciparum): exceptional activity | P. falciparum IC50 (nM) W-2 [2]: 1.4 nM | P. falciparum IC50 (nM) D-6 [3]: 1.0 nM

OC(c1cc(C(F)(F)F)nc2c(C(F)(F)F)cccc12)C1CCCCN1 (stereo not drawn) [mefloquine]
activity against malaria / CQ-resistant malaria (in words) (CQ-resistant malaria): active to various extents against CQ-resistant malaria

OC(CN1CCN(c2ccnc3cc(Cl)ccc23)CC1)CN1CCN(c2ccnc3cc(Cl)ccc23)CC1 [hydroxypiperaquine]
duration of action (CQ-resistant malaria; [6]): longer duration of action | toxicity (CQ-resistant malaria; [6]): less toxicity when compared to CQ | activity against malaria / CQ-resistant malaria (in words) (CQ-resistant malaria): active against malaria; also recorded: very effective against CQ-resistant malaria in China

CCN(CC)Cc1cc(Nc2ccnc3cc(Cl)ccc23)ccc1O [amodiaquine]
activity against malaria / CQ-resistant malaria (in words) (CQ-resistant malaria): active to various extents against CQ-resistant malaria

C=C[C@H]1C[N@@]2CC[C@H]1C[C@H]2[C@H](O)c1ccnc2ccc(OC)cc12 [quinine]
activity against malaria / CQ-resistant malaria (in words) (CQ-resistant malaria): active to various extents against CQ-resistant malaria

CC(CNc1ccnc2cc(Cl)ccc12)Nc1ccnc2cc(Cl)ccc12 (stereo not drawn) [Compound 2, N1,N2 -Bis(7-chloroquinolin-4-yl)propane1,2-diamine]
in vivo activity against P. berghei (in words) [1]: either active or curative | P. berghei T-C [1, 4]: 3.4 days | P. berghei T-C [1, 5]: 5.7 days | Resistance Index (P. falciparum): 1.1 | IC50 (P. falciparum): < 6 nM | antimalarial activity (in words) (P. falciparum): improved activity | P. falciparum IC50 (nM) W-2 [2]: 3.9 nM | P. falciparum IC50 (nM) D-6 [3]: 3.5 nM

Clc1ccc2c(NCCCCNc3ccnc4cc(Cl)ccc34)ccnc2c1 [Compound 5, N1,N4 -Bis(7-chloroquinolin-4-yl)butane-1,4-diamine]
in vivo activity against P. berghei (in words) [1]: without activity in vivo; also recorded: inactive in both screens | P. berghei T-C [1, 4]: 0.5 days | P. berghei T-C [1, 5]: 2.3 days | P. berghei T-C [1, 7]: 5.6 days | in vitro activity against P. falciparum (in words) (P. falciparum): approximately an order of magnitude less potent in vitro; also recorded: inactive in both screens | Resistance Index (P. falciparum): 0.2 | P. falciparum IC50 (nM) W-2 [2]: 80.9 nM | P. falciparum IC50 (nM) D-6 [3]: 387 nM

Clc1ccc2c(NCCCCCCCCCNc3ccnc4cc(Cl)ccc34)ccnc2c1 [Compound 11, N^1, N^9 -Bis(7-chloroquinolin-4-yl)nonane-1,9-diamine]
P. berghei T-C [1, 4]: 3.1 days | P. berghei T-C [1, 5]: 7.4 days | P. berghei activity class (A = active, C = curative, with number of mice) ([1]; 640 mg/kg s.c., single dose, n = 5): A (active (A) when the mean survival time of the treated mice is twice that of the controls (>6.2 days)) | Resistance Index (P. falciparum): 0.8 | IC50 (P. falciparum): < 6 nM | P. falciparum IC50 (nM) W-2 [2]: 2.3 nM | P. falciparum IC50 (nM) D-6 [3]: 3.0 nM

Clc1ccc2c(NCCCCCCCNc3ccnc4cc(Cl)ccc34)ccnc2c1 [Compound 9, N^1, N^7 -Bis(7-chloroquinolin-4-Yl)heptane-1,7-diamine]
P. berghei T-C [1, 4]: 2.6 days | P. berghei T-C [1, 5]: 7.2 days | Resistance Index (P. falciparum): 2.3 | IC50 (P. falciparum): < 6 nM | P. falciparum IC50 (nM) W-2 [2]: 4.3 nM | P. falciparum IC50 (nM) D-6 [3]: 1.9 nM

Clc1ccc2c(NCCCCCCCCNc3ccnc4cc(Cl)ccc34)ccnc2c1 [Compound 10, N^1, N^8 -Bis(7-chloroquinolin-4-yl)octane-1,8diamine]
P. berghei T-C [1, 4]: -0.2 days | P. berghei T-C [1, 5]: 1.0 days | Resistance Index (P. falciparum): 0.6 | IC50 (P. falciparum): < 6 nM | P. falciparum IC50 (nM) W-2 [2]: 3.1 nM | P. falciparum IC50 (nM) D-6 [3]: 5.6 nM

Clc1ccc2c(NCCCCCCCCCCCCNc3ccnc4cc(Cl)ccc34)ccnc2c1 [Compound 13, N^1 N^12 -Bis(7-chloroquinolin-4-yl)dodecane-1,12-diamine]
in vivo activity against P. berghei (in words) [1]: without activity in vivo; also recorded: inactive in both screens | P. berghei T-C [1, 4]: 0.0 days | P. berghei T-C [1, 5]: -0.2 days | P. berghei T-C [1, 7]: 0.0 days | in vitro activity against P. falciparum (in words) (P. falciparum): approximately an order of magnitude less potent in vitro; also recorded: inactive in both screens | Resistance Index (P. falciparum): 0.5 | P. falciparum IC50 (nM) W-2 [2]: 30.8 nM | P. falciparum IC50 (nM) D-6 [3]: 59.7 nM

CC(CCCNc1ccnc2cc(Cl)ccc12)CNc1ccnc2cc(Cl)ccc12 (stereo not drawn) [Compound 7, N^1, N^5 -Bis(7-chloroquinolin-4-yl)-2-methylpentane-1,5-diamine]
in vivo activity against P. berghei (in words) [1]: either active or curative | P. berghei T-C [1, 4]: 1.2 days | P. berghei T-C [1, 5]: 3.6 days | Resistance Index (P. falciparum): 1.1 | IC50 (P. falciparum): < 6 nM | antimalarial activity (in words) (P. falciparum): improved activity | P. falciparum IC50 (nM) W-2 [2]: 3.0 nM | P. falciparum IC50 (nM) D-6 [3]: 2.7 nM

CCN(CC)CCCC(C)Nc1ccnc2cc(Cl)ccc12 (stereo not drawn) [CQ, chloroquine, reference compound]
P. berghei T-C ([1]; CQ, 40 mg/kg s.c., average of ten best data sets from WRAIR): 8.7 days | Resistance Index (P. falciparum): 11.2

Clc1ccc2c(NCCCCCCCCCCNc3ccnc4cc(Cl)ccc34)ccnc2c1 [Compound 12, N^1, N^10 -Bis(7-chloroquinolin-4-yl)decane-l,10-diamine]
P. berghei T-C [1, 4]: 0.2 days | P. berghei T-C [1, 5]: 0.2 days | P. berghei T-C [1, 7]: 0.6 days | Resistance Index (P. falciparum): 0.6 | P. falciparum IC50 (nM) W-2 [2]: 3.4 nM | P. falciparum IC50 (nM) D-6 [3]: 5.7 nM

CCN(CC)Cc1cc(Nc2ccnc3cc(Cl)ccc23)ccc1OC(=O)CCC(=O)Oc1ccc(Nc2ccnc3cc(Cl)ccc23)cc1CN(CC)CC [succinic acid diester of amodiaquine]
activity against malaria / CQ-resistant malaria (in words) (CQ-resistant malaria): inactive against malaria

Clc1ccc2c(NCCCCCCNc3ccnc4cc(Cl)ccc34)ccnc2c1 [Compound 8, N^1, N^6 -Bis(7-chloroquinolin-4-yl)hexane-1,6-diamine]
P. berghei T-C [1, 4]: 0.4 days | P. berghei T-C [1, 5]: 3.9 days | Resistance Index (P. falciparum): 1.1 | P. falciparum IC50 (nM) W-2 [2]: 23.4 nM | P. falciparum IC50 (nM) D-6 [3]: 21.1 nM

Clc1ccc2c(NCCCNc3ccnc4cc(Cl)ccc34)ccnc2c1 [Compound 4, N^1,N^3 -Bis(7-chloroquinolin-4-yl)propane1,3-diamine]
in vivo activity against P. berghei (in words) [1]: without activity in vivo; also recorded: inactive in both screens | P. berghei T-C [1, 4]: 0.2 days | P. berghei T-C [1, 5]: 0.4 days | P. berghei T-C [1, 7]: 1.2 days | in vitro activity against P. falciparum (in words) (P. falciparum): approximately an order of magnitude less potent in vitro; also recorded: inactive in both screens | Resistance Index (P. falciparum): 5.5 | P. falciparum IC50 (nM) W-2 [2]: 82.9 nM | P. falciparum IC50 (nM) D-6 [3]: 15.1 nM
